From paper PMC11766601, “A Comparative Study of the In Vitro Intestinal Permeability of Pinnatoxins and Portimine” (Marine Drugs, 2025)
Marks after values point to notes of the source that are not given here.

Legend:
Caco-2 cell monolayers [1] = assay: Lucifer Yellow paracellular permeability (barrier integrity); type: cell-based, human; conditions: 24 h
Description: (§1) All experiments were performed with human intestinal Caco-2 cells (ATCC-HTB37), acquired from the American Type Culture Collection (ATCC; Manassas, VA, USA). Caco-2 cells originate from a colorectal adenocarcinoma, but upon reaching confluence, they differentiate and express the characteristics of enterocytes. The cells were cultivated in minimum essential medium containing 5.5 mM D-glucose, Earle’s salts, and 2 mM L-alanyl-glutamine (MEM GlutaMAX™, Gibco, Bromont, QC, Canada) supplemented with 10% fetal bovine serum (FBS, Gibco), 1% non-essential amino acids, 50 U/mL penicillin, and 50 μg/mL streptomycin (Gibco) under humidified conditions (37 °C, 5% CO2, 95% humidity). The cells were grown for 3–4 days up to 80% confluence before trypsinization and sub-culture. For the experiments, the cells were seeded in TRANSWELL® plates (12 wells, 0.4 µm pore size; Costar®, Corning Incorporated, Corning, NY, USA) at a density of 90,000 cells/cm^2. Prior to toxin treatment, highly differentiated Caco-2 cells were obtained after 24–26 days of culture, with medium renewal every 2–3 days. Passage numbers between 30 and 40 were used for experiments.
(§2) PnTX-A, PnTX-G, PnTX-E, PnTX-H, and portimine stock solutions were prepared in methanol, while PnTX-F was provided in acetonitrile/acetic acid (50%/0.1%). For each toxin, the cells were incubated at 8, 16, and 32 ng/mL (diluted in HBSS) for 2 h, 6 h, and 24 h, with a final volume of 1.5% solvent. The controls were incubated with the cell culture medium containing the respective solvent of the toxin at 1.5%. Each experiment included three biological replicates. Two to three independent experiments were conducted.
For the assay, both compartments of the insert system were washed with Hank’s balanced salt solution (HBSS). Then, 0.5 mL of 0.1 mg/mL Lucifer Yellow in HBSS buffer and 1 mL of pure HBSS buffer were added to the apical and basolateral compartments, respectively. After a 2 h incubation at 37 °C, the media of the basolateral compartments were collected and the fluorescence of each compartment was measured in triplicate (excitation: 405 nm, emission: 520 nm) with a FLUOstar Optima microplate reader (BMG Labtech, Ortenberg, Germany). After subtraction of the blank (HBSS), the permeability of the […] was calculated against the value obtained for pure LY and reported as % permeability.

Caco-2 cell monolayers [2] = assay: Toxin crossing and apparent permeability across Caco-2 cell monolayers (A to B), LC-MS/MS; type: in vitro ADME, human; conditions: for % theoretical amount of toxin crossing the Caco-2 cell monolayers: relative to theoretical loaded concentration; for Percentage of toxin crossing the Caco-2 cell monolayers: A to B, relative to quantified T0; for amount of toxin crossing the intestinal barrier in vitro: regardless of the concentration loaded, 2 and 6 h; for permeability / oral bioavailability class from Caco-2 Papp: threshold Papp > 1.5 × 10^−6 cm·s^−1 = highly penetrative
Description: as §1, §2
(§3) The apical and basolateral compartments were collected after 2, 6, and 24 h treatment time. Parts of the solutions that were used to load the apical compartments were also stored (T0) to take into account the real concentration and not the estimated concentration. All the samples were stored at −20 °C until LC/MS analysis.
(§4) The LC-MS/MS analysis of toxins was implemented for the quantitative analysis of toxins. The LC system was an Agilent 1200 (Agilent Technologies, Santa Clara, CA, USA). The chromatographic separation was performed using a column Hypersil GOLD® C18 50 mm × 2.1 mm, 1.9 μm (Thermo Scientific, Waltham, MA, USA). Eluent A consisted of water, and eluent B of acetonitrile/water at a ratio of 95:5 (v/v), with both eluents containing 50 mM formic acid and 2 mM ammonium formate. The LC flow rate was 0.4 mL/min, and the gradient was programmed as follows: 10% B held for 0.5 min, 10–90% B in 5 min, 90% B held for 1 min, 90–10% B in 0.5 min, and 10% B held for 3.0 min, for a total run time of 10 min. The injection volume was 5 μL, while the column temperature was maintained at 40 °C. The column effluent was transferred via a divert valve (Valco Instruments Co., Inc., Houston, TX, USA), either to the mass spectrometer (between 1.7 and 5.5 min) or to waste.
(§5) The detection system was constructed with an API 4000 triple quadrupole mass spectrometer (Sciex, Framingham, MA, USA) equipped with an ElectroSpray Ionization (ESI) source (Turbo V). The mass spectrometer was operated in positive ESI mode. The source temperature was set at 600 °C, and the spray voltage was 5500 V. Air was used as a nebulizer gas and an auxiliary gas, with a gas pressure of 40 and 60 psi, respectively. Meanwhile, the curtain gas and collision gas were nitrogen, with a gas pressure of 15 and 8 psi, respectively. The mass spectrometer was operated in multiple reaction monitoring mode (MRM). One transition was used for quantification (Q) and another as a qualifier transition (q). A mass resolution of 0.7 Da full width at half maximum (FWHD) was set on the first (Q1) and the third (Q3) quadrupoles. Instrument control and data were handled with Analyst software version 1.5.1 (Sciex, Framingham, MA, USA).
(§6) The portimine and PnTX retention times varied between 2.7 and 4.4 min (Figure S1). […]

[3] = as above; type: in vitro ADME, human; conditions: human, Caco-2; for Papp: 2 and 6 h, 8-32 ng/mL, read-out: Papp, range of means; for Papp at 2 h, 8 ng/mL / Papp at 6 h, 8 ng/mL: loaded 8 ng/mL; for Papp at 2 h, 8 ng/mL / Papp at 2 h, 16 ng/mL / Papp at 2 h, 32 ng/mL / Papp at 6 h, 8 ng/mL / Papp at 6 h, 16 ng/mL / Papp at 6 h, 32 ng/mL: A to B; for Papp at 2 h, 16 ng/mL / Papp at 6 h, 16 ng/mL: loaded 16 ng/mL; for Papp at 2 h, 32 ng/mL / Papp at 6 h, 32 ng/mL: loaded 32 ng/mL
Description: as §1, §2, §3, §4, §5, §6

Caco-2 cells = assay: Trans-epithelial electrical resistance (TEER) of differentiated Caco-2 monolayers; type: cell-based, human
Description: as §1, §2
Epithelial integrity was examined by measuring the TEER between the apical and basolateral compartments. After rinsing with a HBSS solution (HBSS, HEPES 5 mM, pH 7.4), the Caco-2 monolayers were equilibrated for 30 min at 37 °C with 300 and 1000 µL HBSS in the apical (A) and basolateral (B) chambers, respectively. Then, the content of the apical compartment was replaced with 500 µL HBSS-containing toxins. TEER was quantified with a Millipore Millicell Electrical Resistance System (ERS Millipore, EMD Millipore Corporation, Burlington, MA, USA). The mean value of two measurements per well before and after the treatment was calculated and multiplied by the surface of the insert to obtain Ω × cm^2. After blank subtraction, the results were presented as a percentage of the solvent control.

mice = conditions: mice, oral exposure; cited from earlier work
[4] = all concentrations (8, 16, 32 ng/mL)

Row | SMILES | effect on LY permeability (Caco-2 cell monolayers [1]; [4]) | % theoretical amount of toxin crossing the Caco-2 cell monolayers (Caco-2 cell monolayers [2]; 2 h, 8 ng/mL) | % theoretical amount of toxin crossing the Caco-2 cell monolayers (Caco-2 cell monolayers [2]; 2 h, 16 ng/mL) | % theoretical amount of toxin crossing the Caco-2 cell monolayers (Caco-2 cell monolayers [2]; 2 h, 32 ng/mL) | Percentage of toxin crossing the Caco-2 cell monolayers (Caco-2 cell monolayers [2]; 2 h, loaded 8 ng/mL) | Percentage of toxin crossing the Caco-2 cell monolayers (Caco-2 cell monolayers [2]; 2 h, loaded 16 ng/mL) | Percentage of toxin crossing the Caco-2 cell monolayers (Caco-2 cell monolayers [2]; 2 h, loaded 32 ng/mL) | % theoretical amount of toxin crossing the Caco-2 cell monolayers (Caco-2 cell monolayers [2]; 6 h, 8 ng/mL) | % theoretical amount of toxin crossing the Caco-2 cell monolayers (Caco-2 cell monolayers [2]; 6 h, 16 ng/mL) | % theoretical amount of toxin crossing the Caco-2 cell monolayers (Caco-2 cell monolayers [2]; 6 h, 32 ng/mL) | Percentage of toxin crossing the Caco-2 cell monolayers (Caco-2 cell monolayers [2]; 6 h, loaded 8 ng/mL) | Percentage of toxin crossing the Caco-2 cell monolayers (Caco-2 cell monolayers [2]; 6 h, loaded 16 ng/mL) | Percentage of toxin crossing the Caco-2 cell monolayers (Caco-2 cell monolayers [2]; 6 h, loaded 32 ng/mL) | permeability / oral bioavailability class from Caco-2 Papp (Caco-2 cell monolayers [2]) | Papp at 2 h, 8 ng/mL [3] | Papp at 2 h, 16 ng/mL [3] | Papp at 2 h, 32 ng/mL [3] | Papp at 6 h, 8 ng/mL [3] | Papp at 6 h, 16 ng/mL [3] | Papp at 6 h, 32 ng/mL [3] | further results
1 | C=C1CCCC2=NCC(C)C(C)CC23CCC(C(O)CCC(=O)O)=CC3C2OC3(CC(C)CC2O3)CC2OC3(CCC4(OC(CCC4(C)O)C1)O3)CC(C)C2O (centres unmarked) [PnTX-E] | significant increase | 5.25% | 2.12 ± 0.71% | 2.47 ± 0.31% | 6.05 * % | 2.41 ± 0.65% | 2.92 ± 0.45% | 2.87 ± 0.53% | 2.12 ± 1.06% | 3.25 ± 0.88% | 3.29 ± 0.64% | 2.40 ± 1.06% | 3.85 ± 1.15% | poor permeability | 3.75 ×10⁻⁶ cm/s | 1.5 ± 0.4 ×10⁻⁶ cm/s | 1.81 ± 0.28 ×10⁻⁶ cm/s | 2.04 ± 0.4 ×10⁻⁶ cm/s | 1.49 ± 0.65 ×10⁻⁶ cm/s | 2.38 ± 0.71 ×10⁻⁶ cm/s | decrease of toxin amount in the apical compartment (Caco-2 cell monolayers [2]; 2 h, all the tested concentrations): approximately 15%; toxin amount in the apical compartment (Caco-2 cell monolayers [2]; 6 h): approximately 100 % of the loaded amount; amount of toxin crossing the intestinal barrier in vitro (Caco-2 cell monolayers [2]): < 4%; Papp [3]: 1.49 to 3.75 ×10⁻⁶ cm/s; effect on TEER (Caco-2 cells; 24 h, 16 and 32 ng/mL): slight, but non-significant, decrease; macroscopic lesions on the intestine, other organs and tissues (mice): no macroscopic lesions
2 | C=C1CCCC2=NCC(C)C(C)CC23CCC(C(=O)O)=CC3C2OC3(CC4CCCC5(CCC6(OC(CCC6(C)O)C1)O5)O4)CC(C)C(O)C2O3 (centres unmarked) [PnTX-A] | significant increase | 2.83 ± 2.1% | 2.5 ± 0.33% | 2.60 ± 0.80% | 2.35 ± 1.66% | 2.26 ± 0.34% | 2.01 ± 0.63% | 4.08 ± 0.52% | 3.42 ± 1.63% | 3.12 ± 1.05% | 3.44 ± 0.62% | 3.10 ± 1.53% | 2.39 ± 0.65% | poor permeability | 1.45 ± 1.03 ×10⁻⁶ cm/s | 1.4 ± 0.21 ×10⁻⁶ cm/s | 1.25 ± 0.39 ×10⁻⁶ cm/s | 2.13 ± 0.38 ×10⁻⁶ cm/s | 1.92 ± 0.95 ×10⁻⁶ cm/s | 1.48 ± 0.41 ×10⁻⁶ cm/s | amount of toxin crossing the intestinal barrier in vitro (Caco-2 cell monolayers [2]): < 4%; Papp [3]: 1.25 to 2.13 ×10⁻⁶ cm/s; effect on TEER (Caco-2 cells; irrespective of time (2, 6, 24 h) and concentration (8, 16, 32 ng/mL)): no effect
3 | C=CC1=CC2C3OC4(CC(C)CC3O4)CC3OC4(CCC5(OC(CCC5(C)O)CC(=C)CCCC5=NCC(C)C(C)CC52CC1)O4)CC(C)C3O (centres unmarked) [PnTX-H, Pinnatoxin H] |  | 3.96 ± 0.19% | 3.21±0.94% | 4.32 ± 1.10% | 31.52 ± 5.07% | 22.05 ± 7.80% | 29.07 ± 3.54% | 7.37 ± 1.42% | 7.10 ± 0.79% | 8.04 ± 1.80% | 58.06 ± 8.71% | 48.83 ± 11.22% | 54.22 ± 3.91% | high oral bioavailability | 19.5 ± 3.14 ×10⁻⁶ cm/s | 13.7 ± 4.83 ×10⁻⁶ cm/s | 18 ± 2.19 ×10⁻⁶ cm/s | 36 ± 5.4 ×10⁻⁶ cm/s | 30.3 ± 6.69 ×10⁻⁶ cm/s | 33.6 ± 2.43 ×10⁻⁶ cm/s | effect on passage of LY (Caco-2 cell monolayers [1]): lower effect; effect on LY permeability (Caco-2 cell monolayers [1]; 32 ng/mL only): significant increase; effect on TEER (Caco-2 cells; 24 h, 32 ng/mL): slight, but non-significant, decrease
